Target: Human factor D (Homo sapiens (Human), UniProt P00746)
Test: Human Factor D Assay
Type: biochemical
Conditions: human factor D 80 nM, substrate Z-L-Lys-SBzl, DTNB, OD405
Outline: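 Serum-purified human factor D (80 nM final) preincubated with compound 5 min at room temperature in 50 mM Tris, 1M NaCl, pH 7.5. Z-L-Lys-SBzl and DTNB added at 10 μM final each; OD405 followed kinetically over 30 min. IC50 by non-linear regression of percent inhibition.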

Human factor D, sequence (P00746 26-253): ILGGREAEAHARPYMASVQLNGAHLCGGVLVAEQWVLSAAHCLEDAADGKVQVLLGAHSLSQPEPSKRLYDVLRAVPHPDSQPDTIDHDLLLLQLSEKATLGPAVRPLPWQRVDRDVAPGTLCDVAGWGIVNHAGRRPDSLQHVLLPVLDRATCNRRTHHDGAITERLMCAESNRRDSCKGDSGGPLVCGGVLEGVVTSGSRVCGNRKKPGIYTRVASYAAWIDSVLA

| SMILES | IC50 |
| --- | --- |
| CC(=O)c1cn(CC(=O)N2C[C@H](F)C[C@H]2C(=O)Nc2cccc(Br)n2)c2ccc(C3(NC(=O)OC(C)(C)C)CC3)cc12 [Compound 123, tert-butyl 1-(3-acetyl-1-(2-((2S,4R)-2-(6-bromopyridin-2-ylcarbamoyl)-4-fluoropyrrolidin-1-yl)-2-oxoethyl)-1H-indol-5-yl)cyclopropylcarbamate] | < 1 µM |
| CC(=O)c1cn(CC(=O)N2C[C@H](F)C[C@H]2C(=O)Nc2cccc(-c3ccccc3Cl)c2F)c2c(C#Cc3ncc(F)cn3)cccc12 [Compound 124, (2S,4R)-1-(2-(3-acetyl-7-((5-fluoropyrimidin-2-yl)ethynyl)-1H-indol-1-yl)acetyl)-N-(2′-chloro-2-fluorobiphenyl-3-yl)-4-fluoropyrrolidine-2-carboxamide] | < 1 µM |
